Measured values reported in the NIST ThermoML archive (doi:10.1016/j.jct.2013.08.002).

Experiment: relative permittivity at various frequencies (dimensionless)
Details: 101 kPa, Liquid, Frequency=0.01 MHz, Coaxial cylinder capacitor

NCCNCCO [N-(2-aminoethyl)ethanolamine]
Details	relative permittivity
293.2 K	21.51
299.2 K	19.87
304.2 K	18.18
308.2 K	17.09
314.2 K	15.84
320.2 K	14.64
323.2 K	13.97
330.2 K	12.89
333.2 K	12.3
339.2 K	11.37
343.2 K	10.77
348.2 K	10.19
